Columns and labels:
[1] = tested on: ALS (acetolactate syntase); assay: ALS enzyme assay (Test 1); type: biochemical, pea; settings: 1,000 ppm (0.5 mg/0.5 ml)
Outline: (§1)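 Partially purified ALS from dark-grown pea and barnyardgrass seedlings incubated 1 h at 30° C with pyruvate, TPP, MgCl2 and FAD. Compounds tested at 1,000 ppm (0.5 mg/0.5 ml). Acetoin formed detected colorimetrically at 525 nm via creatine/α-naphthol, relative to blank and acid-stopped controls.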

soybean = assay: Upland foliar application test (Test 3), crop injury; type: in vivo; settings: 30 g ai/a, foliar spray at 2-3 leaves, 30th day
Outline: (§2)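 Upland-soil pots seeded with weeds and crops (incl. cotton, large crabgrass, johnsongrass, common lambsquarters), grown in greenhouse to 2-3 leaf stage. Emulsion diluted with water sprayed on foliage at 5 l per are via ULV sprayer. Weed damage and crop injury scored 30 days after spraying.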

cotton = assay: as above; type: in vivo; settings: 30 g ai/a, foliar spray at 2-3 leaves, 30th day
Outline: as §2

peanut = assay: as above; type: in vivo; settings: 30 g ai/a, foliar spray at 2-3 leaves, 30th day
Outline: as §2

bulrush = assay: Treatment of soil under submerged condition, post-emergence (Test 5); type: in vivo; settings: 30 g ai/a granule, 30 days later
Outline: (§3)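 Pots of submerged soil were sown with weed seeds or tubers, and 2-3-leaf rice seedling pairs were transplanted. At barnyardgrass two-leaf stage a granule formulation was applied. Weed emergence and rice injury were rated 30 days later as damage degrees.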

barnyardgrass [2] = assay: as above; type: in vivo; settings: 30 g ai/a granule, post-emergence (barnyardgrass two-leaf stage), 30 days later
Outline: as §3

Sagittaria pygmaea = assay: as above; type: in vivo; settings: 30 g ai/a granule, 30 days later
Outline: as §3

green foxtail = assay: Upland foliar application test (Test 3); type: in vivo; settings: 30 g ai/a, foliar spray at 2-3 leaves, 30th day
Outline: as §2

common lambsquarters = assay: Upland foliar application test (Test 3); type: in vivo; settings: 30 g ai/a, foliar spray at 2-3 leaves, 30th day
Outline: as §2

redroot pigweed = assay: Upland foliar application test (Test 3); type: in vivo; settings: 30 g ai/a, foliar spray at 2-3 leaves, 30th day
Outline: as §2

large crabgrass = assay: Upland foliar application test (Test 3); type: in vivo; settings: 30 g ai/a, foliar spray at 2-3 leaves, 30th day
Outline: as §2

johnsongrass = assay: Upland foliar application test (Test 3); type: in vivo; settings: 30 g ai/a, foliar spray at 2-3 leaves, 30th day
Outline: as §2

barnyardgrass [3] = assay: Upland foliar application test (Test 3); type: in vivo; settings: 30 g ai/a, foliar spray at 2-3 leaves, 30th day
Outline: as §2

foxtail meadow = assay: Upland foliar application test (Test 3); type: in vivo; settings: 30 g ai/a, foliar spray at 2-3 leaves, 30th day
Outline: as §2

[4] = tested on: ALS (acetolactate syntase); assay: ALS enzyme assay (Test 1); type: biochemical, barnyardgrass; settings: 1,000 ppm (0.5 mg/0.5 ml)
Outline: as §1

rice [5] = assay: Treatment of soil under submerged condition, post-emergence (Test 5), injury; type: in vivo; settings: 30 g ai/a granule, 30 days later
Outline: as §3

rice [6] = assay: Treatment of soil under submerged condition, pre-emergence (Test 4), injury; type: in vivo; settings: 30 g ai/a granule, 30 days later
Outline: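 Weeds were seeded or planted in submerged soil, with 2-3 leaf rice seedlings transplanted into the same pots. One day later, before weed emergence, a granule formulation of the test composition was applied. Weed damage and rice injury were scored 30 days after treatment.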

| Compound | Inhibitory activity (%) Pea [1] | Injury Soybean (soybean) | Injury Cotton (cotton) | Injury Peanut (peanut) | Herbicidal effects Bulrush (bulrush) | Herbicidal effects Barnyardgrass (barnyardgrass [2]) | Herbicidal effects Sagittaria Pygmaea (Sagittaria pygmaea) | Herbicidal effects Green foxtail (green foxtail) | Herbicidal effects Common lambsquarters (common lambsquarters) | Herbicidal effects Redroot pigweed (redroot pigweed) | Herbicidal effects Large crabgrass (large crabgrass) | Herbicidal effects Johnsongrass (johnsongrass) | Herbicidal effects Barnyardgrass (barnyardgrass [3]) | Herbicidal effects Foxtail meadow (foxtail meadow) | Inhibitory activity (%) Barnyardgrass [4] | Injury Rice (rice [5]) | Injury Rice (rice [6]) |
| --- | --- | --- | --- | --- | --- | --- | --- | --- | --- | --- | --- | --- | --- | --- | --- | --- | --- |
| C=C(Cl)CON=Cc1ccccc1Oc1nc(OC)cc(OC)n1 [Compound No. 14] | 0% | 0 (91-100 (No damages)) | 0 (91-100 (No damages)) | 0 (91-100 (No damages)) | 5 (0-5 (Death)) | 5 (0-5 (Death)) | 4 (6-10 (Severe damages)) | 5 (0-5 (Death)) | 4 (6-10 (Severe damages)) | 4 (6-10 (Severe damages)) | 5 (0-5 (Death)) | 5 (0-5 (Death)) | 5 (0-5 (Death)) | 5 (0-5 (Death)) | 56% | 1 (71-90 (Slight damages)) | 0 (91-100 (No damages)) |
| COc1cc(OC)nc(Oc2ccccc2C=NO)n1 [Compound No. 24, 2-(4,6-dimethoxy-2-pyrimidinyloxy)-benzaloxime] | 0% | 1 (71-90 (Slight damages)) | 1 (71-90 (Slight damages)) | 0 (91-100 (No damages)) | 5 (0-5 (Death)) | 5 (0-5 (Death)) | 4 (6-10 (Severe damages)) | 4 (6-10 (Severe damages)) | 3 (11-40 (Medium damages)) | 3 (11-40 (Medium damages)) | 4 (6-10 (Severe damages)) | 5 (0-5 (Death)) | 4 (6-10 (Severe damages)) | 4 (6-10 (Severe damages)) | 36% | 1 (71-90 (Slight damages)) | 1 (71-90 (Slight damages)) |
| COc1cc(OC)nc(Oc2ccccc2C=NOCc2ccc(C)cc2)n1 [compound 19] | 0% | 0 (91-100 (No damages)) | 0 (91-100 (No damages)) | 0 (91-100 (No damages)) | 4 (6-10 (Severe damages)) | 4 (6-10 (Severe damages)) | 3 (11-40 (Medium damages)) | 5 (0-5 (Death)) | 4 (6-10 (Severe damages)) | 4 (6-10 (Severe damages)) | 3 (11-40 (Medium damages)) | 5 (0-5 (Death)) | 3 (11-40 (Medium damages)) | 4 (6-10 (Severe damages)) | 16% | 0 (91-100 (No damages)) | 0 (91-100 (No damages)) |
| COc1cc(OC)nc(Oc2ccccc2C=O)n1 [B, reference compound] | 92% | 5 (0-5 (Death)) | 5 (0-5 (Death)) | 5 (0-5 (Death)) | 5 (0-5 (Death)) | 5 (0-5 (Death)) | 4 (6-10 (Severe damages)) | 4 (6-10 (Severe damages)) | 3 (11-40 (Medium damages)) | 3 (11-40 (Medium damages)) | 4 (6-10 (Severe damages)) | 4 (6-10 (Severe damages)) | 4 (6-10 (Severe damages)) | 4 (6-10 (Severe damages)) | 98% | 5 (0-5 (Death)) | 5 (0-5 (Death)) |
| COc1cc(OC)nc(Oc2ccccc2C=NOC(C)c2ccccc2)n1 (stereo not drawn) [compound 21] | 0% | 0 (91-100 (No damages)) | 0 (91-100 (No damages)) | 0 (91-100 (No damages)) | 3 (11-40 (Medium damages)) | 3 (11-40 (Medium damages)) | 3 (11-40 (Medium damages)) | 4 (6-10 (Severe damages)) | 3 (11-40 (Medium damages)) | 3 (11-40 (Medium damages)) | 4 (6-10 (Severe damages)) | 5 (0-5 (Death)) | 3 (11-40 (Medium damages)) | 3 (11-40 (Medium damages)) | 26% | 0 (91-100 (No damages)) | 0 (91-100 (No damages)) |
| CON=Cc1ccccc1Oc1nc(OC)cc(OC)n1 [Compound No. 1, O-methyl--2-(4,6-dimethoxy-2-pyrimidinyloxy)benzaldoxime] | 3% | 0 (91-100 (No damages)) | 0 (91-100 (No damages)) | 0 (91-100 (No damages)) | 5 (0-5 (Death)) | 4 (6-10 (Severe damages)) | 3 (11-40 (Medium damages)) | 5 (0-5 (Death)) | 4 (6-10 (Severe damages)) | 5 (0-5 (Death)) | 3 (11-40 (Medium damages)) | 5 (0-5 (Death)) | 5 (0-5 (Death)) | 5 (0-5 (Death)) | 58% | 0 (91-100 (No damages)) | 0 (91-100 (No damages)) |
